# Source: patent US8188151B2, “Methods for treating diabetes” (Omega Bio-Pharma (I.P.3) Limited, priority 2003, dated 2012)
# Counter-ions that a name gives are not always drawn.
# Assays:
# [1] = test system: glucose transporter (glut4); assay: Glucose transporter (glut4) expression in tissues of GK diabetic rats (Example 2); assay type: in vivo, rat; details: for expression of total glut4 in liver, muscles, adipocytes (in words): GK rats; for glut4 expression, adipocyte, fold changes compared with control level / glut4 expression, liver, fold changes compared with control level / glut4 expression, muscle, fold changes compared with control level: Mean ± STD, GK diabetic rats
# Description: (§1) The 36 GK rats were divided into 4 groups based on body weight (BW) and plasma glucose level. […] All animals were treated at 10:00 for 20 days. […] Plasma glucose concentrations were determined by Glucotrendr2 equipment (Roche Diagnostics, Basel, Switzerland). Plasma insulin concentrations were determined by radioimmunoassay (Insulin RIA Kit, NO:0410, purchased from Shanghai Radioimmunoassay Research Institution). The effects on plasma glucose level are shown in Table 4, the effects on plasma insulin and adiponectin levels are shown in Table 5, and the effects on different tissues are shown in Table 6. The “p” value is the comparison with the control group.
# adiponectin = assay: Adiponectin level in GK diabetic rats (Example 2); assay type: in vivo, rat; details: for Adiponectin: Mean ± STD, DC 22.5 mg/kg BW, Metformin 34 mg/kg BW
# Description: The 36 GK rats were divided into 4 groups based on body weight (BW) and plasma glucose level. Group 1 (control, n=10) was treated with saline by gavage (2 ml/rat) Group 2 (DC, n=6) was treated with cysteamine hydrochloride by gavage (22.5 mg/kg BW in 2 ml tap water); Group 3 (Metformin, Met, n=10) was treated with Metformin by gavage (34 mg/kg BW in 2 ml tap water); Group 4 (Met+DC, n=10) was treated with Metformin 34 mg/kg BW/day in 2 ml tap water for the first 10 days and then was treated with both cysteamine hydrochloride 22.5 mg/kg BW plus Metformin 34 mg/kg BW in 2 ml tap water for the second 10 days. All animals were treated at 10:00 for 20 days.
# (§2) The four groups of animals were kept in the same room (temp 23±3° C., relative humidity 65±1%) in different cages with wire mesh bottoms to reduce coprophagia throughout the experiment. The rats were subjected to fasting overnight from 10:00 pm to 09:30 of the following day before being subjected to a glucose tolerance test. The rats were treated with glucose 2 g/kg BW in 2 ml tap water at 09:30 for the glucose tolerance test and the blood was collected from the tail vein at 0.5, 1, 2, and 3 hours after glucose injection. Plasma glucose concentrations were determined by Glucotrendr2 equipment (Roche Diagnostics, Basel, Switzerland). Plasma insulin concentrations were determined by radioimmunoassay (Insulin RIA Kit, NO:0410, purchased from Shanghai Radioimmunoassay Research Institution). […] The “p” value is the comparison with the control group.
# GK diabetic rats = assay: Glucose tolerance test in GK diabetic rats (Example 2); assay type: in vivo, rat; details: for glucose levels in glucose tolerance test (in words): GK diabetic rats; for Glucose tolerance test, plasma glucose, Fasting / Glucose tolerance test, plasma glucose, 0.5 hour / Glucose tolerance test, plasma glucose, 1 hour / Glucose tolerance test, plasma glucose, 2 hours / Glucose tolerance test, plasma glucose, 3 hours: Mean ± STD, DC 22.5 mg/kg BW, Metformin 34 mg/kg BW by gavage; for Glucose tolerance test, plasma glucose, Fasting: 20 days (combination in second 10 days); for Glucose tolerance test, plasma glucose, 0.5 hour / Glucose tolerance test, plasma glucose, 1 hour / Glucose tolerance test, plasma glucose, 2 hours / Glucose tolerance test, plasma glucose, 3 hours: after glucose 2 g/kg BW, 20 days
# Description: Food and water were provided ad libitum.
# The 36 GK rats were divided into 4 groups based on body weight (BW) and plasma glucose level. […] All animals were treated at 10:00 for 20 days.
# as §2
# [2] = test system: Goto-Kakizaki Wistar rats (GK rats); assay: Oral glucose tolerance test and starving plasma glucose in GK rats (Example 1); assay type: in vivo, rat
# Description: Nineteen male Goto-Kakizaki Wistar rats (GK rats) with weights of 300±20 g were kept in steel cages, 3-4 rats per cage. The cages were changed every two days. Indoor temperature and relative humidity was kept at 23±3° C. and 65±1% respectively. Feed and drinking water was provided. GK rats were permitted a one-month period for adaptation.
# One day prior to experimentation, at 17:00, all of the feed was removed from all groups, but not the drinking water. On the second day, at 09:30, starving plasma glucose was measured for all GK rats. At 10:00, glucose tolerance test (2 g/kg BW) was performed and the plasma glucose level was measured as well for all GK rats. On the third day, the GK rats of the control group were orally administered a saline solution (2 ml/rat) and the GK rats in treatment I and II groups were orally administered a solution of Metformin (17 mg/kg body weight (BW), 2 ml once pre day at 09:30). This regimen was performed for the following several days. On the ninth day, starving plasma glucose was measured and oral glucose tolerance test was performed again for all GK rats in all groups.
# On the tenth day, the regimen for the GK rats in the treatment II group was changed to an oral administration of Metformin with cysteamine hydrochloride (Metformin 17 mg/kg BW, cysteamine hydrochloride 15 mg/kg BW) for the following 6 days, while the regimen for the control group and the treatment I group remained unchanged. This regimen was performed for six days.
# Six days following the change in regimen, starving plasma glucose was measured and glucose tolerance tests were performed, and blood and tissue samples were collected (liver, duodenum, pancreas gland, fat, and muscle) for all GK rats in all groups. Blood samples were stored at 4° C. for three hours and centrifuged for ten minutes at 3500 rpm. Then, the serum was collected and stored at −20° C. Tissue samples were placed in liquid nitrogen once collected and then stored in −80° C.
# The glucose tolerance tests that were performed included the steps of starving the GK rats overnight. Next day at 09:30, starving plasma glucose was measured. At 10:00, oral administration of a glucose solution (2 g/kg BW) was performed. Blood samples were collected via tail vein at 0, 0.5, 1, 2, and 3 hours and then performed with the plasma glucose testing equipment.
# diabetic patients = assay: Open-label randomized trial in patients with diabetes type II (Example 3); assay type: in vivo, human
# Description: The cysteamine alone (DC) group was treated with 540 mg/day of cysteamine hydrochloride.
# Insulin = assay: Plasma insulin by radioimmunoassay in GK diabetic rats (Example 2); assay type: in vivo, rat; details: for Fasting Insulin: Mean ± STD, DC 22.5 mg/kg BW, Metformin 34 mg/kg BW
# Description: as §1
# [3] = late-phase, Metformin 17 mg/kg BW, cysteamine hydrochloride 15 mg/kg BW oral for 6 days
# [4] = mid-phase, Treatment I group, 6 days oral Metformin 17 mg/kg BW, glucose 2 g/kg BW
# [5] = mid-phase, Treatment II group (Metformin 17 mg/kg BW only, before cysteamine hydrochloride was added)
# [6] = cysteamine hydrochloride 540 mg/day, two months
# [7] = pre-treatment minus post-treatment
smiles,measurement,setting,value
CN(C)C(=N)N=C(N)N [Metformin],"expression of total glut4 in liver, muscles, adipocytes (in words)",[1],"increased, but not significantly"
same,"glut4 expression, adipocyte, fold changes compared with control level",[1],2.14 ± 1.39 fold
same,"glut4 expression, liver, fold changes compared with control level",[1],2.43 ± 1.85 fold
same,"glut4 expression, muscle, fold changes compared with control level",[1],1.38 ± 0.67 fold
same,adiponectin (in words),adiponectin,not
same,Adiponectin,adiponectin,3917 ± 416 ng/mL
same,glucose levels in glucose tolerance test (in words),GK diabetic rats,statistically significantly different
same,"Glucose tolerance test, plasma glucose, Fasting",GK diabetic rats,5.53 ± 0.53 mmol/L
same,"Glucose tolerance test, plasma glucose, 0.5 hour",GK diabetic rats,15.24 ± 1.34 mmol/L
same,"Glucose tolerance test, plasma glucose, 1 hour",GK diabetic rats,13.98 ± 0.95 mmol/L
same,"Glucose tolerance test, plasma glucose, 2 hours",GK diabetic rats,9.62 ± 0.83 mmol/L
same,"Glucose tolerance test, plasma glucose, 3 hours",GK diabetic rats,7.71 ± 1.37 mmol/L
same,duodenal plasma glucose levels and insulin resistance (in words),"[2]; GK rats, oral administration","to some extent, lowers"
same,"Glucose tolerance test, plasma glucose, 0.5 hour",[2]; [3],12.98
same,"Glucose tolerance test, plasma glucose, 1 hour",[2]; [3],13.42
same,"Glucose tolerance test, plasma glucose, 2 hours",[2]; [3],8.6
same,"Glucose tolerance test, plasma glucose, 3 hours",[2]; [3],6.67
same,"Glucose tolerance test, plasma glucose, Starving",[2]; [3],4.75
same,"Glucose tolerance test, plasma glucose, Starving","[2]; mid-phase, Treatment I group, 6 days oral Metformin 17 mg/kg BW",4.98
same,"Glucose tolerance test, plasma glucose, 0.5 hour",[2]; [4],15.68
same,"Glucose tolerance test, plasma glucose, 1 hour",[2]; [4],15.93
same,"Glucose tolerance test, plasma glucose, 2 hours",[2]; [4],10.55
same,"Glucose tolerance test, plasma glucose, 3 hours",[2]; [4],8.5
same,"Glucose tolerance test, plasma glucose, 0.5 hour",[2]; [5],15.65
same,"Glucose tolerance test, plasma glucose, 1 hour",[2]; [5],15.8
same,"Glucose tolerance test, plasma glucose, 2 hours",[2]; [5],10.55
same,"Glucose tolerance test, plasma glucose, 3 hours",[2]; [5],8.37
same,"Glucose tolerance test, plasma glucose, Starving",[2]; [5],5.03
same,insulin-like growth factor 1 (IGF1) (in words),diabetic patients,decrease
same,insulin levels (in words),Insulin,"decreased, but not statistically significant"
same,Fasting Insulin,Insulin,18.75 ± 3.98 IU/L
NCCS [cysteamine hydrochloride],"expression of total glut4 in liver, muscles, adipocytes (in words)",[1],significantly increase
same,"glut4 expression, adipocyte, fold changes compared with control level",[1],2.7 ± 1.16 fold
same,"glut4 expression, liver, fold changes compared with control level",[1],3.77 ± 3.15 fold
same,"glut4 expression, muscle, fold changes compared with control level",[1],1.5 ± 0.74 fold
same,adiponectin (in words),adiponectin,significantly increased
same,Adiponectin,adiponectin,4318 ± 590 ng/mL
same,glucose levels in glucose tolerance test (in words),GK diabetic rats,did not affect
same,"Glucose tolerance test, plasma glucose, Fasting",GK diabetic rats,5.80 ± 0.36 mmol/L
same,"Glucose tolerance test, plasma glucose, 0.5 hour",GK diabetic rats,16.68 ± 1.1 mmol/L
same,"Glucose tolerance test, plasma glucose, 1 hour",GK diabetic rats,15.68 ± 0.8 mmol/L
same,"Glucose tolerance test, plasma glucose, 2 hours",GK diabetic rats,11.00 ± 0.8 mmol/L
same,"Glucose tolerance test, plasma glucose, 3 hours",GK diabetic rats,8.33 ± 0.64 mmol/L
same,C peptide (CP) (in words),diabetic patients,decreases significantly
same,HOMA (Homeostasis Model Assessment) (in words),diabetic patients,decreases significantly
same,blood uric acid (UA) levels (in words),diabetic patients,decreases significantly
same,fasting insulin (FINS) (in words),diabetic patients,decreases significantly
same,insulin-like growth factor 1 (IGF1) (in words),diabetic patients,decreases significantly
same,microalbuminuria (in words),diabetic patients,obvious but not statistically significantly
same,"24 h Microalbuminuria, Post-treatment",diabetic patients; [6],30.97 ± 25.12
same,"FBS (fasting blood sugar), Post-treatment",diabetic patients; [6],8.21 ± 2.43
same,"FCP (C peptide), Post-treatment",diabetic patients; [6],557 ± 119
same,"FINS (fasting insulin), Post-treatment",diabetic patients; [6],13.25 ± 6.36
same,"HOMA (Homeostasis Model Assessment), Post-treatment",diabetic patients; [6],5.43 ± 3.19
same,"IGF, Post-treatment",diabetic patients; [6],44.37 ± 7.28
same,"UA (blood uric acid), Post-treatment",diabetic patients; [6],359 ± 60.16
same,"24 h Microalbuminuria, Paired Difference",diabetic patients; [7],11.77 ± 40.73
same,"FBS, Paired Difference",diabetic patients; [7],−0.69 ± 2.11
same,"FCP, Paired Difference",diabetic patients; [7],182 ± 164
same,"FINS, Paired Difference",diabetic patients; [7],22.14 ± 19.39
same,"HOMA, Paired Difference",diabetic patients; [7],6.51 ± 4.94
same,"IGF, Paired Difference",diabetic patients; [7],4.99 ± 5.12
same,"UA, Paired Difference",diabetic patients; [7],29.5 ± 37.87
same,insulin levels (in words),Insulin,did not affect
same,Fasting Insulin,Insulin,22.46 ± 2.65 IU/L
